In general, MIC refers to the lowest concentration found to suppress growth.

“Also recorded” adds a separate entry of the source.

The subject of assay [1] is pDNA of E. coli K-12 BW25113/pCA24N. Nature of the assay: Denaturing agarose gel electrophoresis of pDNA from treated cells. In kind it is cell-based, Escherichia coli. Particulars: non-persisters and rifampicin-induced persisters, MMC 100 μg/mL 1 h. As for the experimental part:
Overnight cultures (16 h) of E. coli K-12 BW25113/pCA24N grown in LB were diluted 1:1000 in buffered LB and grown to the desired turbidity. For exponential phase cells (i.e., non-persisters), cultures were grown to a turbidity of 2.0 at 600 nm. For rifampicin-induced persisters, cultures were grown to a turbidity of 0.8 at 600 nm, exposed to rifampicin (100 μg/mL) for 30 min, centrifuged, and resuspended in fresh medium to remove the rifampicin. Non-persister and rifampicin-induced persister cultures were treated with MMC (100 μg/mL) for 1 h. pDNA was extracted from samples taken before and after MMC treatment and linearized by HindIII digestion. As a positive control, 2 μg of linearized pDNA from non-persisters was crosslinked in vitro with 500 μg/mL (1.5 mM) MMC in 0.2 mM EDTA, 50 mM NaCl, and 5 mM Tris (pH=7.6) with Na2S2O4 added six times at 10 min intervals to reach a final concentration of 2.25 mM (1.5× molarity of MMC). The in vitro crosslinking reaction was performed anaerobically on ice and the reaction was stopped by exposure to air. Linearized pDNA was visualized after electrophoresis through a TAE agarose gel and an alkaline denaturing agarose gel. Experiment was performed with at least two independent cultures.

Assay [2] relates to EHEC, S. aureus, and P. aeruginosa PAO1. In kind it is cell-based. As to conditions: mono- and co-cultures in wound-like medium, 5 h treatment. The procedure:
Overnight cultures (16 h) of EHEC, S. aureus, and P. aeruginosa PAO1 were grown in LB (TSB for S. aureus), washed with 0.85% NaCl solution, and diluted 1:1000 (as mono-cultures or co-cultures) in wound-like medium (WLM) (45% Bolton broth, 50% heparinized bovine plasma, and 5% laked horse blood). […] Samples containing S. aureus were coagulated, so sections of coagulated WLM were cut and weighed add appropriate amounts of antibiotics. Coagulated samples were triturated and vortexed to release cells prior to measuring cell viability.

The next assay relates to EHEC infection. In kind it is in vivo, Caenorhabditis elegans. As to conditions: MMC 10 μg/mL, ciprofloxacin 5 μg/mL, ampicillin 100 μg/mL, 6 h exposure; four replicates.
The subject of assay [3] is E. coli K-12. Nature of the assay: Planktonic antibiotic killing assay. As to conditions: for fold more effective compared to ciprofloxacin: MMC 10 μg/mL vs ciprofloxacin 5 μg/mL. In kind it is cell-based, Escherichia coli. As for the experimental part:
(§1) In order to obtain exponential and mid-stationary phase cultures in LB, buffered LB or TSB, overnight cultures (16 h) were diluted 1:1000 in fresh medium and grown to the desired turbidity (i.e., a turbidity below 2 at 600 nm for exponential phase and a turbidity of 3 to 4 at 600 nm for mid-stationary phase). Late-stationary phase cultures in LB or buffered LB were obtained by growing overnight cultures (16 h). In order to obtain exponential and late-stationary phase cultures in M9-glucose, overnight cultures (16 h) were washed diluted 1:1000 in M9-glucose and grown for the desired period of time (i.e., a turbidity of 0.4 at 600 nm for exponential phase and 24 h of growth for late-stationary phase). Anaerobically grown cultures were maintained with ˜20% CO2, ˜79% N2, and ˜1% H2. In order to obtain rifampicin-induced persister cultures in buffered LB, overnight cultures (16 h) were diluted 1:1000 in fresh medium and grown to a turbidity of 0.8 at 600 nm. Cultures were exposed to rifampicin (100 μg/mL) for 30 min, centrifuged, and resuspended in fresh medium to remove the rifampicin.

Another assay deals with E. coli O157:H7 (EHEC). The assay can be described thus: Planktonic antibiotic killing assay. As to conditions: MMC 10 μg/mL, 3 h; for cell viability after treatment: rich medium (buffered LB). In kind it is cell-based, Escherichia coli. The procedure: as §1
Assay [4] relates to S. aureus clinical isolates 5B and 50F. Nature of the assay: Persister cell assay, clinical isolates. In kind it is cell-based, Staphylococcus aureus. As to conditions: for survival: stationary phase, 500 μg/mL of cisplatin. As for the experimental part: For the persister cell assay of the pathogens, stationary-phase cells were used. Cultures of EHEC, P. aeruginosa, and S. aureus were prepared by a 1:1000 dilution of overnight grown cultures (LB medium for EHEC and P. aeruginosa, TSB for S. aureus) into fresh buffered LB medium for EHEC, M9-glucose for P. aeruginosa, and TSB for S. aureus and re-growing the cells to a turbidity of 3 to 4 at 600 nm for EHEC and S. aureus and growing for 24 h for P. aeruginosa. […]

Assay [5] deals with E. coli K-12. In kind it is cell-based, Escherichia coli. The procedure: Persister cell killing and eradication assays (planktonic cells). For the time course experiment, late stationary phase cells of E. coli K-12 (wild-type and isogenic mutants) were prepared by growing cells overnight (16 h) in LB medium buffered with 100 mM KPO4 at pH 7.0 (buffered LB). A 1 mL culture was used for a drop (10 μL×3) assay to check cell viability at 0 h (i.e., before antibiotic treatment). […] At 1 h intervals, 1 mL culture was centrifuged at 10,000 rpm for 3 min, the supernatant was discarded, the cells were resuspended in 1 mL of normal saline (0.85% NaCl), and the cell suspension was serially diluted for a drop assay to check cell viability.
To test for eradication, the wild-type E. coli K-12 cells were treated with cisplatin for 12 h, a 1 mL sample was centrifuged, the cell pellet was resuspended in 150 μL of normal saline, and the cells were spread on LB agar to check cell viability. Another 1 mL culture was diluted 1:10 with fresh buffered LB and the cells were incubated to allow any remaining cells to replicate. After 12 h, 18 h, and 24 h, 1 mL samples were centrifuged, resuspended in 150 μL of normal saline and spread on LB agar plates to check cell viability. At least two independent cultures were used.

Assay [6] concerns E. coli K-12. Nature of the assay: Minimum inhibitory concentration (MIC) assay. In kind it is cell-based, Escherichia coli. Particulars: 16 h, lack of turbidity. The procedure: Minimum inhibitory concentration (MIC) assay. To determine the MICs of cisplatin for E. coli K-12, enterohemorrhagic E. coli (EHEC), S. aureus, and P. aeruginosa (PAO1 and PA14), freshly inoculated cultures (at least two independent cultures) in buffered LB (TSB for S. aureus) were incubated for 16 h with varying concentrations of cisplatin, and growth inhibition was assayed by the lack of turbidity.

For `CO[C@@]12[C@H](COC(N)=O)C3=C(C(=O)C(C)=C(N)C3=O)N1C[C@@H]1N[C@@H]12` [MMC, mitomycin C], in assay [1], the “pDNA crosslinking (migration as double-stranded DNA under denaturing conditions)” value is reported as “crosslinks DNA in E. coli K-12 persister cells; also recorded: high percentage of crosslinking”. The “effectiveness under wound-like conditions” value in assay [2] is “eradicates pathogens; also recorded: more effective than ciprofloxacin and ampicillin”. Moreover, in the assay with EHEC infection, the “survival of the EHEC-infected worms” value is given as “higher than with either ciprofloxacin or ampicillin”. The survival result in the assay on E. coli K-12 [3] (anaerobic, late-stationary phase cells in rich medium (LB)) is recorded as “eradication beyond the limit of detection; also recorded: eradicated”. The “susceptibility of exponential-phase cultures” value in the assay with E. coli K-12 [3] (exponential phase, M9-glucose) was “similarly susceptible”. Besides, the “fold more effective compared to ciprofloxacin” value in the assay on E. coli K-12 [3] (exponentially-growing cells, buffered LB, 3 h) is reported as 2,300 fold; in the assay on E. coli K-12 [3] (mid-stationary-phase cells, buffered LB, 3 h), 150,000 fold. Further, the “time course of killing (death curve)” value with E. coli K-12 [3] (late-stationary phase culture, buffered LB) is given as “does not show the bi-phasic death curve”. Also, the “persistence (surviving population)” value in the assay with E. coli K-12 [3] (late-stationary phase, M9-glucose, MMC 10, ciprofloxacin 5, gentamicin 10 μg/mL, 3 h) is “eradication beyond the limit of detection; also recorded: eradicated cells”. In addition, in the assay on E. coli K-12 [3] (rifampicin pretreatment 100 μg/mL 30 min, buffered LB, MMC 10 μg/mL, ciprofloxacin 5 μg/mL, 3 h), the “effectiveness against rifampicin-induced persister cells” value is “highly effective”. The “cell viability after treatment” value in the assay on E. coli O157:H7 (EHEC) (exponential phase) and with E. coli O157:H7 (EHEC) (mid-stationary phase) was “eradicating” in each case. Moreover, the cells survived result in the assay with E. coli O157:H7 (EHEC) (late-stationary phase, M9-glucose, ciprofloxacin 5 μg/mL) is on record as “eradicated”.

On to `N.N.[Cl][Pt][Cl]` [cisplatin, cis-diamminodichloroplatinum(II)], for which the “cell viability after treatment” value in assay [4] (both clinical isolates, 800 μg/mL) is listed as “completely eradicate”. The values for the survival in assay [4] (isolate 5B) and in assay [4] (isolate 50F) were 2.5±3.5% and 10±4%, respectively. Moreover, in the assay on E. coli K-12 [5] (5×MIC of cisplatin for 12 h), the “eradication of persister cells (colonies from 1 mL of culture)” value was “completely eradicated”. For the same compound, in the assay with E. coli K-12 [5] (8 h treatment with 5×MIC of cisplatin), the “killing of katE or katG catalase mutants compared to the wild-type strain” value is reported as “did not find any significant differences in killing”. Further, the “time course dependent killing” value in the assay on E. coli K-12 [5] (late stationary phase (16 h of growth), buffered LB, cisplatin 500 μg/mL (5×MIC), ciprofloxacin 5 μg/mL (100×MIC), 8 h) is recorded as “nearly eradicated; also recorded: eradicates late stationary-phase E. coli K-12 cells”. In the assay on E. coli K-12 [5] (treated culture inoculated into fresh medium, 12 h, 18 h, and 24 h), the “regrowth when cisplatin is withdrawn” value was “no increase in turbidity or colonies”. Moreover, in the assay with E. coli K-12 [6], the MIC stood at 100 µg/mL.

The record behind these values is US10238689B2, “Methods for combating bacterial infections by killing persister cells with mitomycin C and/or cisplatin” (THE PENN STATE RESEARCH FOUNDATION, priority 2015, dated 2019).
